Measurements from patent publication US12611409B2, “Combination therapy using a chemokine receptor 2 (CCR2) antagonist and a PD-1/PD-L1 inhibitor” (CHEMOCENTRYX, INC., priority 2017, dated 2026).

What was measured:
[1] = Compound 1 plasma levels in the CT26 study; type: in vivo, Balb/c mice; conditions: oral gavage 30 mg/kg daily; day 3 and day 23 of dosing
Method: Six days after subcutaneous CT26 implantation into the flanks of 9 wk female Balb/c mice (2.5×10^5/mouse), the recipients were randomized based on tumor size and treatment was begun. Mice received anti-PD-1 (RPM1-14 from BioXcell, Inc., catalog number BE0146) by IP injection on days 7, 10, 17 and 21 (200 μg/mouse), and received CCR2 antagonist Compound 1 (30 or 60 mg/kg) or vehicle by oral gavage every 24 hours starting day 7.

[2] = test system: M-MDSCs and CD8 T cells in the CT26 tumor microenvironment; test: Quantitation of tumor-infiltrating cells per gram of CT26 tumor (flow cytometry); type: in vivo, Balb/c mice
From the text: CT26 is a Balb/c-derived colon adenocarcinoma that generates tumors when injected subcutaneously into Balb/c mice. Single cells were isolated from established subcutaneous CT26 tumors (28 days after injection) by mincing, digesting the tissue briefly with collagenase-D, and passing the slurry through 100 μm sieves. Cells were stained for flow cytometry and gated on live CD45^+ tumor-infiltrating leukocytes (FIG. 2).
Tumor-infiltrating cytotoxic T cells (Thy1^+/CD8^+) were quantitated by weighing the tumors before dissociation, allowing cells-per-gram of tumor to be calculated.
M-MDSCs were quantitated by weighing the tumors before dissociation, allowing cells-per-gram of tumor to be calculated.
The ratio in control treated mice (veh+iso) was 1:1, meaning one M-MDSC for every CD8 T cell. […] Treatment of Compound 1 alone yielded 10 CD8 T cells for every M-MDSC cell. Treatment with α-PD-1 […].

C[C@H]1CN([C@@H]2CC[C@@](C(=O)N3COc4c(cc(C(F)(F)F)cc4C(F)(F)F)C3)(C3CC3)OC2)CC[C@@H]1c1cccc(C(=O)O)c1 [Compound 1]
trough plasma levels [1]: at or above those required for full receptor coverage
M-MDSCs in the CT26 tumor microenvironment (cells per gram of tumor) ([2]; by day 24): reduces the population of M-MDSCs
ratio of CD8 T cells to M-MDSCs ([2]; calculated from cell counts of FIG. 10 and FIG. 11, control (veh+iso) 1:1): 10 CD8 T cells for every M-MDSC
